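How tested: cells in 96-well plates exposed to compound for 48 hours at five concentrations. GI50 is the concentration that inhibits growth by half. The concentration for full growth arrest is given as TGI.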
Assays:
Test in all cases: NCI-60 cell line screen, 48 h
OVCAR-3 ovarian = system: OVCAR-3 ovarian
MDA-MB-435 = system: MDA-MB-435
CCRF-CEM leukemia = system: CCRF-CEM leukemia
HS 578T breast = system: HS 578T breast
HCC-2998 colon = system: HCC-2998 colon
LOX IMVI melanoma = system: LOX IMVI melanoma
M14 melanoma = system: M14 melanoma
NCI-H460 lung = system: NCI-H460 lung
SK-MEL-28 melanoma = system: SK-MEL-28 melanoma
OVCAR-5 ovarian = system: OVCAR-5 ovarian
OVCAR-8 ovarian = system: OVCAR-8 ovarian
UACC-257 melanoma = system: UACC-257 melanoma
786-0 renal = system: 786-0 renal
A498 renal = system: A498 renal
MOLT-4 leukemia = system: MOLT-4 leukemia
HOP-62 NSCLC = system: HOP-62 NSCLC
RPMI-8226 leukemia = system: RPMI-8226 leukemia
SR leukemia = system: SR leukemia
SK-OV-3 ovarian = system: SK-OV-3 ovarian
K-562 leukemia = system: K-562 leukemia
MCF7 breast = system: MCF7 breast
SF-295 CNS = system: SF-295 CNS
RXF 393 renal = system: RXF 393 renal
PC-3 prostate = system: PC-3 prostate
OVCAR-4 ovarian = system: OVCAR-4 ovarian
ACHN renal = system: ACHN renal
CAKI-1 renal = system: CAKI-1 renal
KM12 colon = system: KM12 colon
BT-549 breast = system: BT-549 breast
SW-620 colon = system: SW-620 colon
HT29 colon = system: HT29 colon
HOP-92 NSCLC = system: HOP-92 NSCLC
SK-MEL-5 melanoma = system: SK-MEL-5 melanoma
SNB-75 CNS = system: SNB-75 CNS
U251 CNS = system: U251 CNS
NCI-H23 lung = system: NCI-H23 lung
IGROV1 ovarian = system: IGROV1 ovarian
DU-145 prostate = system: DU-145 prostate
SNB-19 CNS = system: SNB-19 CNS
COLO 205 colon = system: COLO 205 colon
SN12C renal = system: SN12C renal
NCI-H226 lung = system: NCI-H226 lung
HCT-15 colon = system: HCT-15 colon
NCI-H522 lung = system: NCI-H522 lung
T-47D breast = system: T-47D breast
NCI/ADR-RES ovarian = system: NCI/ADR-RES ovarian
MALME-3M melanoma = system: MALME-3M melanoma
UACC-62 melanoma = system: UACC-62 melanoma
SF-268 CNS = system: SF-268 CNS
SK-MEL-2 melanoma = system: SK-MEL-2 melanoma
SF-539 CNS = system: SF-539 CNS
HL-60(TB) leukemia = system: HL-60(TB) leukemia
A549 NSCLC = system: A549 NSCLC
MDA-MB-231 breast = system: MDA-MB-231 breast
HCT-116 colon = system: HCT-116 colon
UO-31 renal = system: UO-31 renal
EKVX NSCLC = system: EKVX NSCLC
TK-10 renal = system: TK-10 renal

NC(=O)c1c(Br)n(C2OC(CO)C(O)C2O)c2ncnc(N)c12 (stereo unspecified)
GI50 (OVCAR-3 ovarian): 1.24 µM
TGI (OVCAR-3 ovarian): 5.59 µM
GI50 (MDA-MB-435): 1.73 µM
TGI (MDA-MB-435): 7.68 µM
GI50 (CCRF-CEM leukemia): 0.8 µM
TGI (CCRF-CEM leukemia): 6.37 µM
GI50 (HS 578T breast): 1.48 µM
TGI (HS 578T breast): 9.36 µM
GI50 (HCC-2998 colon): 1.71 µM
TGI (HCC-2998 colon): 13.2 µM
GI50 (LOX IMVI melanoma): 0.684 µM
TGI (LOX IMVI melanoma): 6.09 µM
GI50 (M14 melanoma): 1.19 µM
TGI (M14 melanoma): 8.76 µM
GI50 (NCI-H460 lung): 1.8 µM
TGI (NCI-H460 lung): 12.5 µM
GI50 (SK-MEL-28 melanoma): 3.02 µM
TGI (SK-MEL-28 melanoma): 13.8 µM
GI50 (OVCAR-5 ovarian): 1.39 µM
TGI (OVCAR-5 ovarian): 45.5 µM
GI50 (OVCAR-8 ovarian): 0.763 µM
TGI (OVCAR-8 ovarian): 12.3 µM
GI50 (UACC-257 melanoma): 2.99 µM
TGI (UACC-257 melanoma): 18.4 µM
GI50 (786-0 renal): 3.04 µM
TGI (786-0 renal): 41.9 µM
GI50 (A498 renal): 3.09 µM
TGI (A498 renal): 15.6 µM
GI50 (MOLT-4 leukemia): 0.36 µM
TGI (MOLT-4 leukemia): 3.46 µM
GI50 (HOP-62 NSCLC): 2.86 µM
TGI (HOP-62 NSCLC): 25.3 µM
GI50 (RPMI-8226 leukemia): 1.87 µM
TGI (RPMI-8226 leukemia): 7.51 µM
GI50 (SR leukemia): 1.11 µM
TGI (SR leukemia): 4.9 µM
GI50 (SK-OV-3 ovarian): 1.05 µM
TGI (SK-OV-3 ovarian): 9.95 µM
GI50 (K-562 leukemia): 1.43 µM
TGI (K-562 leukemia): > 60.4 µM
GI50 (MCF7 breast): 0.246 µM
TGI (MCF7 breast): 2.72 µM
GI50 (SF-295 CNS): 2.78 µM
TGI (SF-295 CNS): 18.7 µM
GI50 (RXF 393 renal): 1.37 µM
TGI (RXF 393 renal): 12.9 µM
GI50 (PC-3 prostate): 0.593 µM
TGI (PC-3 prostate): 7.57 µM
GI50 (OVCAR-4 ovarian): 1.14 µM
TGI (OVCAR-4 ovarian): 15.3 µM
GI50 (ACHN renal): 0.749 µM
TGI (ACHN renal): 10.4 µM
GI50 (CAKI-1 renal): 0.369 µM
TGI (CAKI-1 renal): 2.43 µM
GI50 (KM12 colon): 1.91 µM
TGI (KM12 colon): 12.3 µM
GI50 (BT-549 breast): 1.08 µM
TGI (BT-549 breast): 11.2 µM
GI50 (SW-620 colon): 0.545 µM
TGI (SW-620 colon): 9.87 µM
GI50 (HT29 colon): 1.03 µM
TGI (HT29 colon): 32 µM
GI50 (HOP-92 NSCLC): 0.45 µM
TGI (HOP-92 NSCLC): 7.08 µM
GI50 (SK-MEL-5 melanoma): 2.65 µM
TGI (SK-MEL-5 melanoma): 9.85 µM
GI50 (SNB-75 CNS): 1.92 µM
TGI (SNB-75 CNS): 18 µM
GI50 (U251 CNS): 2.92 µM
TGI (U251 CNS): > 86.4 µM
GI50 (NCI-H23 lung): 2.15 µM
TGI (NCI-H23 lung): 13 µM
GI50 (IGROV1 ovarian): 0.609 µM
TGI (IGROV1 ovarian): 3.95 µM
GI50 (DU-145 prostate): 0.544 µM
TGI (DU-145 prostate): 8.86 µM
GI50 (SNB-19 CNS): 5.16 µM
TGI (SNB-19 CNS): 59.8 µM
GI50 (COLO 205 colon): 1.45 µM
TGI (COLO 205 colon): 6.07 µM
GI50 (SN12C renal): 1.61 µM
TGI (SN12C renal): 12.9 µM
GI50 (NCI-H226 lung): 4.78 µM
TGI (NCI-H226 lung): 57.6 µM
GI50 (HCT-15 colon): 0.427 µM
TGI (HCT-15 colon): 7.03 µM
GI50 (NCI-H522 lung): 2.54 µM
TGI (NCI-H522 lung): 11 µM
GI50 (T-47D breast): 0.132 µM
TGI (T-47D breast): 2.88 µM
GI50 (NCI/ADR-RES ovarian): 1.34 µM
TGI (NCI/ADR-RES ovarian): 12.5 µM
GI50 (MALME-3M melanoma): 1.47 µM
TGI (MALME-3M melanoma): 6.34 µM
GI50 (UACC-62 melanoma): 1.63 µM
TGI (UACC-62 melanoma): 3.83 µM
GI50 (SF-268 CNS): 2.49 µM
TGI (SF-268 CNS): 13.4 µM
GI50 (SK-MEL-2 melanoma): 1.82 µM
TGI (SK-MEL-2 melanoma): 5.62 µM
GI50 (SF-539 CNS): 2.43 µM
TGI (SF-539 CNS): 8.73 µM
GI50 (HL-60(TB) leukemia): 0.702 µM
TGI (HL-60(TB) leukemia): 4.11 µM
GI50 (A549 NSCLC): 1.97 µM
TGI (A549 NSCLC): 21.4 µM
GI50 (MDA-MB-231 breast): 3.55 µM
TGI (MDA-MB-231 breast): 29.1 µM
GI50 (HCT-116 colon): 0.71 µM
TGI (HCT-116 colon): > 53.4 µM
GI50 (UO-31 renal): 2.16 µM
TGI (UO-31 renal): 13.6 µM
GI50 (EKVX NSCLC): 4.31 µM
TGI (EKVX NSCLC): 59.8 µM
GI50 (TK-10 renal): 0.839 µM
TGI (TK-10 renal): 13.7 µM

Reference: PubChem BioAssay (NCI)
